Results from patent publication US20240238426A1, “PROTEIN ACYLATION MODULATION BY HETEROBIFUNCTIONAL MOLECULES” (THE SCRIPPS RESEARCH INSTITUTE, priority 2021, published 2024).

Key:
[1] = system: p300/CBP substrates, including c-Myc and STAT3; assay: Immunoblot of acetylation of other p300/CBP substrates in HeLa cells; assay type: cell-based, Human; details: increasing concentration
Method: (§1) Immunoblotting: Cells were harvested in cold DPBS by scraping and washed with cold DPBS twice. Cell pellets were resuspended in DPBS supplemented with 5 mM sodium butyrate, 20 mM Nicotinamide, and 1X Halt Protease Inhibitor Cocktail and lysed by sonication (15 ms on, 40 ms off, 15% amplitude, 1s total on x 3). Protein concentration was determined using DC Protein Assay (Bio-Rad) and absorbance read using a CLARIOstar plate reader following manufacturer's instructions. Samples with equal protein content were boiled in 4X SDS gel loading buffer for 10 min. Proteins were separated by 10%, 12.5%, or 15% SDS-polyacrylamide gel electrophoresis and transferred to PVDF membranes using Trans-Blot Turbo RTA Mini […] LF PVDF Transfer Kit (Bio-Rad). Membranes were incubated for 1 h at room temperature with blocking buffer, followed by incubating overnight at 4° C. with primary antibodies. After washing in TBST, the secondary antibodies were incubated with the membranes at room temperature for 1 h. The membranes were washed with TBST for three times and visualized on a Bio-Rad ChemiDoc MP Imaging System with Clarity Max Western ECL substrate (Bio-Rad) or SuperSignal West Femto Chemiluminescent substrate proprietary luminol and peroxide solution kit (Thermo Scientific Pierce).

[2] = target: T1, p300 (Homo sapiens, UniProt Q09472); assay: In-situ photocrosslinking with p300-p probe and competition by AceTAG-1 in HEK293T cells; assay type: cell-based; details: increasing concentrations of AceTAG-1, 30 min, FIG. 3F
T1 construct: expressed in transfected cells; host or cells: HEK293T (transient)
T1 sequence (Q09472 whole entry, species assumed): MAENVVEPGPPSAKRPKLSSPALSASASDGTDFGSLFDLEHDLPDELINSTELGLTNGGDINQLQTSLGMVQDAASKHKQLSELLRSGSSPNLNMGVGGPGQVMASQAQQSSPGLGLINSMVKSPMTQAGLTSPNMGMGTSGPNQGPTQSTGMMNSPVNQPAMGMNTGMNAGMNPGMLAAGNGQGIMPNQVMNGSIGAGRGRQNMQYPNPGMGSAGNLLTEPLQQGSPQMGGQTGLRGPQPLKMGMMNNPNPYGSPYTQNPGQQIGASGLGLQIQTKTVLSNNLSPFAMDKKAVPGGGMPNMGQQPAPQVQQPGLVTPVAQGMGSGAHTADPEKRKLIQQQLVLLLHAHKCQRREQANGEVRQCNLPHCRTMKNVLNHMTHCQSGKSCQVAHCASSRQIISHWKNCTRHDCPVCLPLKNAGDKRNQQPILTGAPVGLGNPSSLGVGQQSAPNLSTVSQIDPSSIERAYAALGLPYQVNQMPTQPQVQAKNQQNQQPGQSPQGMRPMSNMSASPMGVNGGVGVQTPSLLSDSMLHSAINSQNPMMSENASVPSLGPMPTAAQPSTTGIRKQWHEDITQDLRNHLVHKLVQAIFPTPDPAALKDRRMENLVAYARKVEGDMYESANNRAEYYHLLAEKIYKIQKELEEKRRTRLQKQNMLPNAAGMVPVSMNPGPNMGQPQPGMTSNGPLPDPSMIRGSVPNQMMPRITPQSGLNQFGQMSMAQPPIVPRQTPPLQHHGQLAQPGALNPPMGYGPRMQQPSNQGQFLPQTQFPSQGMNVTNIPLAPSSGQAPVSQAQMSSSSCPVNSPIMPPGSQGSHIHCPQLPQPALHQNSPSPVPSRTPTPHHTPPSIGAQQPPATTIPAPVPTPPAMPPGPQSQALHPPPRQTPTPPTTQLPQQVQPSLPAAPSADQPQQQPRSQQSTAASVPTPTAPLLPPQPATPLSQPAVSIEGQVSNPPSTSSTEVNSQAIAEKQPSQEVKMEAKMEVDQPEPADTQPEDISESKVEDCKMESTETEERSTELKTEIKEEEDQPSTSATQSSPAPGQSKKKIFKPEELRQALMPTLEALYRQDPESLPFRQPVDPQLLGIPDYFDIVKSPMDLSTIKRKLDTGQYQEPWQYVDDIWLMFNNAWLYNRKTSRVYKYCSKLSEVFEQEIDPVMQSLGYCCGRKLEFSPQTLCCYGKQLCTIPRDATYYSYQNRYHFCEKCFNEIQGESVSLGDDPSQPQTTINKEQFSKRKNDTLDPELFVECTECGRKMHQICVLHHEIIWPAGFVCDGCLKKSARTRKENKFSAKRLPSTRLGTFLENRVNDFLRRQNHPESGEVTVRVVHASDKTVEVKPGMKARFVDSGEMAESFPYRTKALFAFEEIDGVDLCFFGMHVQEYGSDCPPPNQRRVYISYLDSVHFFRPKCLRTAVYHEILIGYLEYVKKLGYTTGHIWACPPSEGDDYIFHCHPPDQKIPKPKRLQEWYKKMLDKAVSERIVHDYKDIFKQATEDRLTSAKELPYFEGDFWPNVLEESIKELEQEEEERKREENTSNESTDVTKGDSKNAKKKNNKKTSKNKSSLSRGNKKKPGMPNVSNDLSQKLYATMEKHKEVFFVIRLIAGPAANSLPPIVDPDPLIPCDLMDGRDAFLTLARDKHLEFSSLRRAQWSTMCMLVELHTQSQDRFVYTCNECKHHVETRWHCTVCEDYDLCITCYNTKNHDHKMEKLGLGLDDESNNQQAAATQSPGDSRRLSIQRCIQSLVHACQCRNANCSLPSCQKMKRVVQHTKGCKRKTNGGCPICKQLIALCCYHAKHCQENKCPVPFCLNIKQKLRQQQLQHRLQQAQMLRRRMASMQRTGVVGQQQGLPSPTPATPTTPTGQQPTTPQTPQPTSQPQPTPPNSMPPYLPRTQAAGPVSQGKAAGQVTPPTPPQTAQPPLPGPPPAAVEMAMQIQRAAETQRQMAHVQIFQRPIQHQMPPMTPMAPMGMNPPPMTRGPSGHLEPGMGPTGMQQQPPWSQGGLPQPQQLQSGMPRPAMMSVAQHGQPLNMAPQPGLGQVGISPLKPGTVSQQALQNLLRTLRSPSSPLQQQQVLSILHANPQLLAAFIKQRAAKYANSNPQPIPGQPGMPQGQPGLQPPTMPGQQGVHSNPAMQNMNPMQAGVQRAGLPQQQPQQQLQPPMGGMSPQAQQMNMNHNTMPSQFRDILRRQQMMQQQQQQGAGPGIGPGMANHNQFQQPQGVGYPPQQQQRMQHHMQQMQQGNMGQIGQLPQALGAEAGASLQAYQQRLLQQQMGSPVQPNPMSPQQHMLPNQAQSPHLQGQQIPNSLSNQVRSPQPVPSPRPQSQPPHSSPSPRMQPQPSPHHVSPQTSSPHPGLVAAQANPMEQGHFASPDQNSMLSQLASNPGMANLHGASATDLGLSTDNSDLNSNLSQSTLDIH
Method: In-situ photocrosslinking with p300-BRD photocrosslinking probe and competition by AceTAG-1: At 50%-70% confluency, HEK293t cells in 6-well plates were transfected with pSG5-HA-p300. After 24 h, cells were co-treated for 30 min with […] p300-p probe and increasing concentration of AceTAG-1 in serum-free media. Cells then underwent UV-photocrosslinking (365 nm) for 20 min at 4° C. and harvested in cold DPBS by scraping and centrifugation. Cell pellets were washed with cold DPBS two times and aspirated. Cells were then lysed in 200 μL DPBS buffer supplemented with 1X Halt protease inhibitor cocktail. Lysate was fractionated by ultracentrifuge (100000 g, 45 min, 4° C.) to provide soluble fraction (supernatant) and membrane fraction (pellets). Soluble fraction was normalized to 2 mg/mL, underwent click reaction with Rhodamine-azide as previously described. Proteins (25 μg total protein loaded per gel lane) were resolved using SDS-PAGE (6% acrylamide). In-gel fluorescence visualization and immunoblot analysis was carried out as previously described.

[3] = system: p21 (CDKNIA), PUMA, MDM2, and GLS2; assay: Immunoblot of p53 target gene expression in FKBP12^F36V-p53 H1299 cells; assay type: cell-based, Human
Method: as §1

[4] = system: H3.3-FKBP12^F36V HeLa cells; assay: Quantitative acetylproteomics of H3.3-FKBP12^F36V HeLa cells; assay type: cell-based, Human
Method: Sample preparation: Frozen cell pellets were thawed on ice and lysed in a buffer containing 50 mM Tris-HCl (pH 7.5), 150 mM NaCl, 1 mM EDTA, 1% NP-40, 0.1% sodium deoxycholate, 5 mM sodium butyrate, 10 mM nicotinamide and 1X Pierce™ protease inhibitor cocktail. Cells were sonicated to ensure complete lysis, mixed with 5 M NaCl at a ratio of 1:10 with sample volume and incubated on ice for 15 min to release chromatin-bound proteins. Cell lysates were then sonicated again to shear genomic DNA. Cellular debris was cleared by centrifugation at 16,000 g for 20 min at 4° C., protein concentration was determined using a Pierce™ BCA assay and ˜10 mg of protein was aliquoted for acetyl-proteomic analysis. Proteins were denatured with 8 M urea in 50 mM HEPES, reduced with 5 mM dithiothreitol for 30 min at 56° C., then alkylated with 5 mM iodoacetamide for 20 min in the dark at RT. Following alkylation, proteins were precipitated using chloroform-methanol as previously described, and protein pellets were dried at 56° C. for 15 min. Proteins pellets were resuspended in 1 M urea in 50 mM HEPES and digested in a two-step process with LysC and trypsin as previously described. Digested peptides were desalted using Phenomenex Strata-X polymeric reverse phase extraction cartridges using the following protocol. Cartridges were conditioned with 1 mL 100% acetonitrile, 1 mL 80% acetonitrile/0.5% AA, and 1 mL 0.1% TFA. Peptides were then loaded on to the cartridge at a reduced flow rate and desalted with 5 mL 0.1% TFA followed by 1 mL 0.5% AA. Desalted peptides were eluted using 1 mL 40% acetonitrile/0.5% AA followed by 1 mL 80% acetonitrile/0.5% AA and lyophilized. Digested peptides were quantified using the Pierce™ Quantitative Colorimetric Peptide Assay and […] was aliquoted from each for total protein analysis while the remaining peptide was lyophilized and retained for acetyl-peptide enrichment.
Acetyl-peptide Enrichment: Acetyl-peptides were enriched using the PTMScan® Acetyl-Lysine Motif [Ac-K] Kit according to manufacturer instructions. […]

CC[C@H](C(=O)N1CCCC[C@H]1C(=O)O[C@H](CCc1ccc(OC)c(OC)c1)c1cccc(OCC(=O)NCCOCCOCCC(=O)NCCOc2ccc(CCc3nc4cc(-c5c(C)noc5C)ccc4n3CCN3CCOCC3)cc2)c1)c1cc(OC)c(OC)c(OC)c1 [AceTAG-1, (R)-3-(3,4-dimethoxyphenyl)-1-(3-((15-(4-(2-(5-(3,5-dimethylisoxazol-4-yl)-1-(2-morpholinoethyl)-1H-benzo[d]imidazol-2-yl)ethyl)phenoxy)-2,12-dioxo-6,9-dioxa-3,13-diazapentadecyl)oxy)phenyl)propyl (S)-1-((S)-2-(3,4,5-trimethoxyphenyl)butanoyl)piperidine-2-carboxylate]
acetylation of c-Myc and STAT3 ([1]; FIG. 5B): no observable acetylation changes | broader acetylation perturbation (acetylated lysine immunoblot) ([1]; FIG. 5C): no observable acetylation changes | competition of p300-p probe binding to p300 [2]: efficiently competed | p21 expression level at higher concentration ([3]; FIGS. 7A and 7B): reflected the ‘hook effect’ | p21 expression ([3]; indicated doses, 8 hr and 24 hr exposure, FIGS. 7A and 7B): strong dose-dependent expression | expression of PUMA, MDM2, and GLS2 ([3]; indicated doses, FIG. 7A): insignificant effects | changes in acetylation of detected proteins relative to DMSO ([4]; 600 nM AceTAG, FIG. 5D): no substantial changes in acetylation of any detected protein | endogenous histone lysine acetylation, including H3.3 ([4]; AceTAG treatment, FIG. 9C): no substantial changes
